Patent US10696622B2, “Synthesis of N-vinyl carboxylic acid amides” (Taminco BVBA, priority 2016, dated 2020)

Assay: Solubility in solvent, CIPAC Method MT 181 at 20° C.
Type: physicochemical
Excerpt: When used, the solvent introduced into first reaction zone 20 may be any suitable type of solvent. The solvent may include a single solvent, or it may comprise a mixture of two or more solvents. In some embodiments, the solvent may be selected based on its solubility with one or more of the starting materials in lines 110, 112, and/or 114, and/or with the reaction product produced within first reaction zone 20. For example, at least one of the starting materials introduced into and/or the product withdrawn from first reaction zone 20 may have a solubility of at least about 20, at least about 25, at least about 30, at least about 35, at least about 40, at least about 45, at least about 50, at least about 55 weight percent in the solvent introduced into first reaction zone 20. In addition, or the alternative, at least one of the reagents introduced into and/or the reaction product withdrawn from first reaction zone 20 may have a solubility of not more than about 80, not more than about 75, not more than about 70, not more than about 65 weight percent in the solvent introduced into first reaction zone 20. Solubility is measured at 20° C. using CIPAC Method MT 181, unless otherwise noted.

## CC(O)NC=O (centres unmarked) [1-hydroxyethylformamide]
In formamide
  solubility of 1-hydroxyethylformamide in formamide: about 60 weight percent
In isopropanol, measured as described above (20° C., CIPAC Method MT 181)
  solubility of 1-hydroxyethylformamide in isopropanol: 20.1 weight percent
